The values that follow come from ChEMBL document CHEMBL1139907, “Further studies on hepatitis C virus NS5B RNA-dependent RNA polymerase inhibitors toward improved replicon cell activities: benzimidazole and structurally related compounds bearing the 2-morpholinophenyl moiety” (Bioorg Med Chem Lett, 2007).

pEC50, pIC50: −log10 of the molar value. Some results are limits rather than exact numbers.

In one series the test system is Hepatitis C virus. In words: Antiviral activity against HCV in Huh-5-2 cells by replicon assay. In kind it is functional, organism-based, Hepacivirus hominis.
Settings: not given
(A replicon is a self-replicating genome or part of one, used to study replication in cells.)
A word on the pEC50: it is −log10 of the EC50, conventionally taken in molar units. Higher therefore signals a small EC50. Molecule `CC(=O)Nc1ccc(N2CCOCC2)c(COc2ccc(-c3nc4cc(C(=O)O)ccc4n3C3CCCCC3)c(F)c2)c1` had a pEC50 of 6.04.
The molecule `CC(=O)N(C)c1ccc(N2CCOCC2)c(COc2ccc(-c3nc4cc(C(=O)O)ccc4n3C3CCCCC3)c(F)c2)c1` gave a pEC50 of 6.43.
Still for that read-out and setting: in the case of `O=C(O)c1ccc2c(c1)nc(-c1ccc(OCc3cc(N4CCCC4=O)ccc3N3CCCCC3)cc1F)n2C1CCCCC1` it was 6.10.
`O=C(O)c1ccc2c(c1)nc(-c1ccc(OCc3cc(N4CCCC4=O)ccc3Oc3ccc(Cl)cc3)cc1F)n2C1CCCCC1` showed a pEC50 of 5.51.
The molecule `CC(C)NC(=O)c1ccc(N2CCOCC2)c(COc2ccc(-c3nc4cc(C(=O)O)ccc4n3C3CCCCC3)c(F)c2)c1` showed a pEC50 of 6.42.
`CN1CCN(c2ccc(N3CCCC3=O)cc2COc2ccc(-c3nc4cc(C(=O)O)ccc4n3C3CCCCC3)c(F)c2)CC1` showed a pEC50 of 5.96. Compared with the last molecule, the pEC50 is 0.46 log units lower.
For `Cn1c(-c2ccc(OCc3cc(N4CCCC4=O)ccc3N3CCOCC3)cc2)c(C2CCCCC2)c2ccc(C(=O)O)cc21`, the pEC50 was 7.28.
`O=C(O)c1ccc2c(c1)nc(-c1ccc(OCc3cc(Cl)ccc3N3CCOCC3)cc1F)n2C1CCCCC1` had a pEC50 of 5.92. This pEC50 lies 1.36 log units lower than the previous one.
On to `O=C(O)c1ccc2c(C3CCCCC3)c3n(c2c1)CCOc1cc(OCc2cc(N4CCCC4=O)ccc2N2CCOCC2)ccc1-3`, for which the pEC50 was 8.12. Compared with the last molecule, the pEC50 is 2.20 log units higher.
Molecule `O=C(O)c1ccc2c(c1)nc(-c1ccc(OCc3cc(N4CCCC4=O)ccc3N3CCOCC3=O)cc1F)n2C1CCCCC1` showed a pEC50 of less than 4.52.
In the case of `O=C(O)c1ccc2c(C3CCCCC3)c3n(c2c1)CCOc1cc(OCc2cc(N4CCCC4=O)ccc2-c2ccc(Cl)cc2)ccc1-3`, the pEC50 is 7.22.
Turning to `O=C(O)c1ccc2c(c1)nc(-c1ccc(OCc3cc(N4CCCC4=O)ccc3N3CCC(C(=O)O)CC3)cc1F)n2C1CCCCC1`, the pEC50 is 5.46.

Biological target in the next series: not listed separately
Nature of the series: Inhibition of HCV NS5B polymerase. Also noted: species or system Hepacivirus hominis.
Settings: not given
The term pIC50 denotes the negative decadic logarithm of the IC50, by convention in mol/L. Read a low pIC50 as a high IC50. For `CC(=O)Nc1ccc(N2CCOCC2)c(COc2ccc(-c3nc4cc(C(=O)O)ccc4n3C3CCCCC3)c(F)c2)c1`, the pIC50 was 7.15.
Take `CC(=O)N(C)c1ccc(N2CCOCC2)c(COc2ccc(-c3nc4cc(C(=O)O)ccc4n3C3CCCCC3)c(F)c2)c1`: the pIC50 is 7.29.
On to `O=C(O)c1ccc2c(c1)nc(-c1ccc(OCc3cc(N4CCCC4=O)ccc3N3CCCCC3)cc1F)n2C1CCCCC1`, for which the pIC50 is 6.82.
`O=C(O)c1ccc2c(c1)nc(-c1ccc(OCc3cc(N4CCCC4=O)ccc3Oc3ccc(Cl)cc3)cc1F)n2C1CCCCC1` gave a pIC50 of 6.64.
The molecule `CC(C)NC(=O)c1ccc(N2CCOCC2)c(COc2ccc(-c3nc4cc(C(=O)O)ccc4n3C3CCCCC3)c(F)c2)c1` showed a pIC50 of 7.32.
Consider `CN1CCN(c2ccc(N3CCCC3=O)cc2COc2ccc(-c3nc4cc(C(=O)O)ccc4n3C3CCCCC3)c(F)c2)CC1`, for which the pIC50 is 6.89.
The molecule `Cn1c(-c2ccc(OCc3cc(N4CCCC4=O)ccc3N3CCOCC3)cc2)c(C2CCCCC2)c2ccc(C(=O)O)cc21` had a pIC50 of 8.14. This pIC50 lies 1.25 log units higher than the previous one.
Same read-out and setting: in the case of `O=C(O)c1ccc2c(c1)nc(-c1ccc(OCc3cc(Cl)ccc3N3CCOCC3)cc1F)n2C1CCCCC1` it was 7.00; in that of `O=C(O)c1ccc2c(C3CCCCC3)c3n(c2c1)CCOc1cc(OCc2cc(N4CCCC4=O)ccc2N2CCOCC2)ccc1-3`, 8.14; in that of `O=C(O)c1ccc2c(c1)nc(-c1ccc(OCc3cc(N4CCCC4=O)ccc3N3CCOCC3=O)cc1F)n2C1CCCCC1`, 6.00.
As to `O=C(O)c1ccc2c(C3CCCCC3)c3n(c2c1)CCOc1cc(OCc2cc(N4CCCC4=O)ccc2-c2ccc(Cl)cc2)ccc1-3`, the pIC50 was 7.72.
Molecule `O=C(O)c1ccc2c(c1)nc(-c1ccc(OCc3cc(N4CCCC4=O)ccc3N3CCC(C(=O)O)CC3)cc1F)n2C1CCCCC1` showed a pIC50 of 6.74.

System in another series: not listed separately
In words: Cytotoxicity against Huh-5-2 cells. Type of series: cell-based. Conditions: human.
What is called CC50 is the concentration giving 50% cytotoxicity. Higher therefore signals better tolerance by the cells. In turn, `O=C(O)c1ccc2c(c1)nc(-c1ccc(OCc3cc(N4CCCC4=O)ccc3-c3ccc(Cl)cc3)cc1F)n2C1CCCCC1` yielded a CC50 of more than 20000 nM.
In turn, `CC(=O)Nc1ccc(N2CCOCC2)c(COc2ccc(-c3nc4cc(C(=O)O)ccc4n3C3CCCCC3)c(F)c2)c1` returned a CC50 of more than 20000 nM.
For `CC(=O)N(C)c1ccc(N2CCOCC2)c(COc2ccc(-c3nc4cc(C(=O)O)ccc4n3C3CCCCC3)c(F)c2)c1`, the CC50 is more than 20000 nM.
On to `O=C(O)c1ccc2c(c1)nc(-c1ccc(OCc3cc(N4CCCC4=O)ccc3N3CCCCC3)cc1F)n2C1CCCCC1`, for which the CC50 was more than 20000 nM.
Same read-out and setting: under `O=C(O)c1ccc2c(c1)nc(-c1ccc(OCc3cc(N4CCCC4=O)ccc3Oc3ccc(Cl)cc3)cc1F)n2C1CCCCC1` stands more than 20000 nM; under `CC(C)NC(=O)c1ccc(N2CCOCC2)c(COc2ccc(-c3nc4cc(C(=O)O)ccc4n3C3CCCCC3)c(F)c2)c1`, more than 20000 nM; under `CN1CCN(c2ccc(N3CCCC3=O)cc2COc2ccc(-c3nc4cc(C(=O)O)ccc4n3C3CCCCC3)c(F)c2)CC1`, more than 20000 nM.
In turn, `Cn1c(-c2ccc(OCc3cc(N4CCCC4=O)ccc3N3CCOCC3)cc2)c(C2CCCCC2)c2ccc(C(=O)O)cc21` came in with a cytotoxic concentration (CC50) of more than 20000 nM.
Molecule `O=C(O)c1ccc2c(c1)nc(-c1ccc(OCc3cc(Cl)ccc3N3CCOCC3)cc1F)n2C1CCCCC1` gave a CC50 of more than 20000 nM.
With `O=C(O)c1ccc2c(C3CCCCC3)c3n(c2c1)CCOc1cc(OCc2cc(N4CCCC4=O)ccc2N2CCOCC2)ccc1-3`, the CC50 was more than 20000 nM.
The same measure, in the same setting: under `O=C(O)c1ccc2c(c1)nc(-c1ccc(OCc3cc(N4CCCC4=O)ccc3N3CCOCC3=O)cc1F)n2C1CCCCC1` stands more than 20000 nM; under `O=C(O)c1ccc2c(C3CCCCC3)c3n(c2c1)CCOc1cc(OCc2cc(N4CCCC4=O)ccc2-c2ccc(Cl)cc2)ccc1-3`, more than 20000 nM; under `O=C(O)c1ccc2c(c1)nc(-c1ccc(OCc3cc(N4CCCC4=O)ccc3N3CCC(C(=O)O)CC3)cc1F)n2C1CCCCC1`, more than 20000 nM.

For the next series, the system named is Hepacivirus hominis. Nature of the series: Ratio of EC50 of HCV to IC50 for HCV NS5B polymerase.
Settings: not given
In the case of `O=C(O)c1ccc2c(c1)nc(-c1ccc(OCc3cc(N4CCCC4=O)ccc3-c3ccc(Cl)cc3)cc1F)n2C1CCCCC1`, the Ratio turned out to be 19.
Consider `CC(=O)Nc1ccc(N2CCOCC2)c(COc2ccc(-c3nc4cc(C(=O)O)ccc4n3C3CCCCC3)c(F)c2)c1`, for which the Ratio was 13.
For the molecule `CC(=O)N(C)c1ccc(N2CCOCC2)c(COc2ccc(-c3nc4cc(C(=O)O)ccc4n3C3CCCCC3)c(F)c2)c1`, the Ratio came to 7.3.
As for `O=C(O)c1ccc2c(c1)nc(-c1ccc(OCc3cc(N4CCCC4=O)ccc3N3CCCCC3)cc1F)n2C1CCCCC1`, the Ratio came out at 5.3.
`O=C(O)c1ccc2c(c1)nc(-c1ccc(OCc3cc(N4CCCC4=O)ccc3Oc3ccc(Cl)cc3)cc1F)n2C1CCCCC1`: the Ratio was found to be 13.
Turning to `CC(C)NC(=O)c1ccc(N2CCOCC2)c(COc2ccc(-c3nc4cc(C(=O)O)ccc4n3C3CCCCC3)c(F)c2)c1`, the Ratio turned out to be 7.9.
For `CN1CCN(c2ccc(N3CCCC3=O)cc2COc2ccc(-c3nc4cc(C(=O)O)ccc4n3C3CCCCC3)c(F)c2)CC1`, the Ratio worked out at 8.5.
Same read-out and setting: under `Cn1c(-c2ccc(OCc3cc(N4CCCC4=O)ccc3N3CCOCC3)cc2)c(C2CCCCC2)c2ccc(C(=O)O)cc21` stands 7.2.
Take `O=C(O)c1ccc2c(c1)nc(-c1ccc(OCc3cc(Cl)ccc3N3CCOCC3)cc1F)n2C1CCCCC1`: the Ratio was 12.
Regarding `O=C(O)c1ccc2c(C3CCCCC3)c3n(c2c1)CCOc1cc(OCc2cc(N4CCCC4=O)ccc2N2CCOCC2)ccc1-3`, the Ratio was 1.1.
In the case of `O=C(O)c1ccc2c(c1)nc(-c1ccc(OCc3cc(N4CCCC4=O)ccc3N3CCOCC3=O)cc1F)n2C1CCCCC1`, the Ratio was more than 30.
Take `O=C(O)c1ccc2c(C3CCCCC3)c3n(c2c1)CCOc1cc(OCc2cc(N4CCCC4=O)ccc2-c2ccc(Cl)cc2)ccc1-3`: the Ratio came to 3.1.
The same measure, in the same setting: in the case of `O=C(O)c1ccc2c(c1)nc(-c1ccc(OCc3cc(N4CCCC4=O)ccc3N3CCC(C(=O)O)CC3)cc1F)n2C1CCCCC1` it was 19.
